Laboratory results as given in US20230405003A1, “APPLICATION OF THYMIDINE DERIVATIVE IN PREPARATION OF DRUGS” (ONQUALITY PHARMACEUTICALS CHINA LTD., priority 2020, published 2023).
Like-named read-outs stand apart in the source and are kept apart here.

Columns and labels:
[1] = tested on: HaCaT cells; test: Relief of 5-FU proliferative toxicity to HaCaT cells (CCK-8 cell survival); format: cell-based; details: for Cell Survival Rate (increased percentage of cell survival compared with the Group of 5-FU): 5-Fu 20 μM, HaCaT cells
Summary of the method: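 HaCaT keratinocytes (5000–10000/well) cultured 24 h, then exposed 48 h to 5-FU alone or with thymidine derivative, or thymidine plus uridine derivative mix, versus solvent-matched blanks. Survival by CCK-8; value is % increase in survival over 5-FU alone, t-test.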

[2] = tested on: hand-foot syndrome caused by capecitabine in SD rats; test: Rat model of hand-foot syndrome caused by capecitabine, gel application; format: in vivo; details: capecitabine 4000 mg/kg once daily, 40 days; for inhibition in vivo at 3 %: Rattus norvegicus, topical, 960 h; for inhibition in vivo at 3 % / Control Rate Forepaws / Control Rate Hindpaws: rats
Protocol: A rat animal model was established. 6-week aged female SD rats were administered with capecitabine by daily gavage. The degree of hand-foot syndrome in paws is similar, and there was no difference between the left and right paws. Similar to the human body, rats developed hand-foot syndrome after oral administration of capecitabine. The causes of the two are the same, and the disorder is also very similar. Therefore, rats are very good animal models for simulating the hand-foot syndrome caused by capecitabine.
(§1) After SD rats were fed and adapted for one week (about 200 g), the rats were divided into groups, with 10 rats in each group. Then, the rats were subject to gavage administration. Capecitabine was dissolved in a 1:1 mixed solution of castor oil and ethanol and diluted for three times with PBS buffer. After gavage, the rats were fixed with a fixed cylinder, and a gel of thymidine derivative (or a compounded gel of thymidine derivative and uridine derivative) was applied to double hind paws (about 1 cm*3 cm) of the rats in group of administration (the types and concentrations are shown in Table 4), and a blank gel was applied to the group of blank (as a blank control). After approximately 4 hours of application, the rats were released after 4 hours, wiped with clean water to remove any residual drug at the application site, and allowed back to the cage. The thymidine derivative gel (or the compounded gel of thymidine derivative and uridine derivative) was administered with gavage every day. The gavage and application tests are repeated daily until the group of blank has developed obvious hand-foot syndrome.
Table 4 lists the combinations of animal experiments of capecitabine and the thymidine derivative gel (or the compounded gel of thymidine derivative and uridine derivative) and the corresponding experimental results (wherein, the data in the column of control rate=the occurrence rate of hand-foot syndrome in group of blank—the occurrence rate of hand-foot syndrome in group of administration). […]

[3] = tested on: pain in capecitabine hand-foot syndrome rats; test: Pain of hand-foot syndrome, mechanical sensitivity in rats (von Frey); format: in vivo, rat; details: capecitabine 4000 mg/kg hand-foot syndrome rats; thymidine derivative 3%
Protocol: According to the method of Examples 91-115, after administration of a thymidine derivative (at a concentration of 3%) and co-administration of a thymidine derivative (at a concentration of 1%) with a uridine derivative (at a concentration of 3%) to rat hand-foot syndrome models constructed from 4000 mg/kg of capecitabine for a period of time, pain analysis was performed on the rats, and the pain assessment model was mechanical sensitivity in rats (von Frey). The experimental steps were as follows: first, the rats were allowed to adapt in the room for 1 hour, then the rats were placed in an observation box with a metal mesh floor, and the mice were allowed to stay in the box for 20 minutes to adapt to the experimental platform. Next, a von Frey device was used to detect paw pain by stimulating the surface of the rat's palm with specially designed cilia to detect the mechanical sensitivity of the animal at strength of 0.4 g, 0.8 g, 1.5 g, 2.5 g, 4 g, 8 g, 10 g and 20 g (IITC Life Science, Woodland Hills, 2390 series). […] The rat movement response was considered to be a vague response, in which case the stimulation experiment was repeated.

[4] = tested on: 5-FU-induced diarrhea in Balb/c mice; test: 5-FU-induced diarrhea mouse model (175 mg/kg single i.p.); format: in vivo; details: 5-FU 175 mg/kg single i.p.; for Survival Rate / Average Diarrhea Grade: 6 days; for Average Diarrhea Grade: score 0-4
Protocol: 7-8-week-old male Balb/c mice were used to establish a 5-FU induced diarrhea model to test the effect of the thymidine derivative or the combination of thymidine derivative and uridine derivative on the relief of diarrhea.
Modeling dose of 5-Fu: 175 mg/kg; single administration, intraperitoneal injection (ip.);
Administration mode of the compound to test (thymidine derivative or combination of thymidine derivative and uridine derivative): single administration, by gavage, advance administration of the compound to test at various time points prior to intraperitoneal injection of 5-FU. The compound to test was administered 1 h prior to the administration of 5-FU, a certain amount of 5-FU was injected intraperitoneally 1 h later, and the compound to test was administered once again 7 h after the injection of 5-FU.
The mice were fed and adapted for one week, and then divided into groups, with 10 mice in each group for administration test.
The mice in the Group of blank was injected with 0.9% NaCl, and evaluated the effect by observing the change of diarrhea grade, food uptake, and weight change. The severity of diarrhea was scored in accordance with the following standards: 0: normal feces, 1: soft feces, 2: slightly wet, soft feces, 3: wet, unformed feces, with moderate coloration in perianal region, 4: watery feces with heavy coloration of hair in perianal region. The severity of diarrhea was evaluated by occurrence scores of various grades of diarrhea (Scores 0 to 4) and average score of diarrhea. […] The models were stable, and satisfied the experimental requirements.
5-FU was dissolved in a 0.9% NaCl solution, the mice in the model group and the treatment group were all i.p. injected at a dose of 175 mg/kg/d, […]. While modeling of injection administration of 5-FU, the thymidine derivative or the combination of thymidine derivative and uridine derivative was administered by gavage, and the compounds to test were dissolved in a PBS solution containing 5% DMSO+1% HPMC. Body weight was weighed daily to count the weight change (Δ % BW, the weight changes recorded in the table were the values on Day 6), and the food was weighed daily to calculate the food uptake. The mice were daily observed for their clinical status, e.g., activity, diarrhea, hair, fighting, etc. After 6 days, the experiments were completed and statistically analyzed for the results.

[5] = tested on: hand-foot syndrome caused by Cytarabine in rats; test: Rat model of hand-foot syndrome caused by cytarabine, gel application; format: in vivo; details: Cytarabine 120 mg/kg twice per day, gel 3 wt%, 30 days
Protocol: as §1
(§2) The effects of thymidine derivative or a combination of thymidine derivative and uridine derivative on the chemotherapeutic drug-induced hand-foot syndrome in a rat model were tested according to the method in Examples 30-40. At the same time, paws of rats after treatment with the drug were taken and observed for their inflammation by hematoxylin-eosin staining (HE) and immunohistochemical staining (IHC).
(§3) The test thymidine derivative or the combination of thymidine derivative and uridine derivative, as well as the final concentration of the test compounds were shown in Table 8. Table 8 lists the animal experiment combination of a chemotherapeutical drug and the thymidine derivative gel (or the compound gel of thymidine derivative and uridine derivative) and the corresponding experimental results (wherein, the data in the column of control rate=the occurrence rate of hand-foot syndrome in Group of blank—the occurrence rate of hand-foot syndrome in Group of administration).

[6] = tested on: hand-foot syndrome caused by Acelarin (NUC-1031) in rats; test: Rat model of hand-foot syndrome caused by Acelarin (NUC-1031), gel application; format: in vivo; details: Acelarin (NUC-1031) 130 mg/kg intraperitoneal injection twice a week, gel 3 wt%, 30 days
Protocol: as §1, §2, §3

[7] = gel 3 wt%, read-out: Control Rate Forepaws
[8] = gel 3 wt%, read-out: Control Rate Hindpaws
[9] = selected compound final concentration 0.8 μM
[10] = selected compound final concentration 1.6 μM
[11] = selected compound final concentration 3.13 μM
[12] = selected compound final concentration 6.25 μM
[13] = selected compound final concentration 12.5 μM
[14] = selected compound final concentration 25 μM
[15] = selected compound final concentration 50 μM

Cc1cn([C@H]2C[C@H](O)[C@@H](COC(=O)C(C)(C)C)O2)c(=O)[nH]c1=O [T4]
activation at 1 µM ([1]; Homo sapiens, HaCaT, increase vs Group of 5-FU, 5-FU 20 μM, compound 1 μM, 48 h, read-out: Cell Survival Rate): 20 to 36%
activation at 10 µM ([1]; Homo sapiens, HaCaT, increase vs Group of 5-FU, 5-FU 20 μM, compound 10 μM, 48 h, read-out: Cell Survival Rate): 65 to 72%
activation at 100 µM ([1]; Homo sapiens, HaCaT, increase vs Group of 5-FU, 5-FU 20 μM, compound 100 μM, 48 h, read-out: Cell Survival Rate): 80 to 90%
activation at 500 µM ([1]; Homo sapiens, HaCaT, increase vs Group of 5-FU, 5-FU 20 μM, compound 500 μM, 48 h, read-out: Cell Survival Rate): 70 to 77%
activation at 1000 µM ([1]; Homo sapiens, HaCaT, increase vs Group of 5-FU, 5-FU 20 μM, compound 1000 μM, 48 h, read-out: Cell Survival Rate): 2 to 7%
inhibition in vivo at 3 % [2, 7]: 28.6%
inhibition in vivo at 3 % [2, 8]: 42.9%
Control Rate ([2]; SD rats, gel 2 wt% on hind paws): 32.86%
pain in rats (von Frey mechanical sensitivity) [3]: did not significantly improve pain in rats

CCC1(CC(C)=O)OCCc2c1[nH]c1c(CC(=O)OC[C@H]3O[C@@H](n4cc(C)c(=O)[nH]c4=O)C[C@@H]3O)cccc21 (stereo partly drawn) [T26]
Control Rate Forepaws ([2]; gel 1 wt%): 22.22%
Control Rate Hindpaws ([2]; gel 1 wt%): 44.44%
Control Rate Forepaws ([2]; gel 3 wt%): 57.14%
Control Rate Hindpaws ([2]; gel 3 wt%): 71.43%
pain in rats (von Frey mechanical sensitivity) [3]: could significantly improve pain in rats

Cc1cn([C@H]2C[C@H](O)[C@@H](COC(=O)C(C)c3cccc(C(=O)c4ccccc4)c3)O2)c(=O)[nH]c1=O (stereo partly drawn) [T33]
Cell Survival Rate (increased percentage of cell survival compared with the Group of 5-FU) [1, 9]: 36%-42%
Cell Survival Rate (increased percentage of cell survival compared with the Group of 5-FU) [1, 10]: 37%-44%
Cell Survival Rate (increased percentage of cell survival compared with the Group of 5-FU) [1, 11]: 39%-49%
Cell Survival Rate (increased percentage of cell survival compared with the Group of 5-FU) [1, 12]: 36%-42%
Cell Survival Rate (increased percentage of cell survival compared with the Group of 5-FU) [1, 13]: 55%-63%
Cell Survival Rate (increased percentage of cell survival compared with the Group of 5-FU) [1, 14]: 64%-71%
Cell Survival Rate (increased percentage of cell survival compared with the Group of 5-FU) [1, 15]: 66%-73%
Cell Survival Rate (increased percentage of cell survival compared with the Group of 5-FU) ([1]; selected compound final concentration 100 μM): 55%-63%
Δ % BW (on Day 6) ([4]; 50 mpk gavage): 4.18% ± 0.56%
Survival Rate ([4]; 50 mpk gavage): 100%
Average Diarrhea Grade ([4]; 50 mpk gavage): 1

CC(=O)Oc1ccccc1C(=O)OC[C@H]1O[C@@H](n2cc(C)c(=O)[nH]c2=O)C[C@@H]1O [T37]
Cell Survival Rate (increased percentage of cell survival compared with the Group of 5-FU) [1, 9]: 36%-44%
Cell Survival Rate (increased percentage of cell survival compared with the Group of 5-FU) [1, 10]: 55%-62%
Cell Survival Rate (increased percentage of cell survival compared with the Group of 5-FU) [1, 11]: 61%-69%
Cell Survival Rate (increased percentage of cell survival compared with the Group of 5-FU) [1, 12]: 68%-76%
Cell Survival Rate (increased percentage of cell survival compared with the Group of 5-FU) [1, 13]: 52%-60%
Cell Survival Rate (increased percentage of cell survival compared with the Group of 5-FU) [1, 14]: 49%-57%
Cell Survival Rate (increased percentage of cell survival compared with the Group of 5-FU) [1, 15]: 52%-59%
inhibition in vivo at 3 % [2, 7]: 28.6%
inhibition in vivo at 3 % [2, 8]: 42.9%
Control Rate Forepaws [5]: 22.22%
Control Rate Hindpaws [5]: 44.44%
pain in rats (von Frey mechanical sensitivity) [3]: could significantly improve pain in rats
Control Rate Forepaws [6]: 42.86%
Control Rate Hindpaws [6]: 71.43%

CCC(CC)COC(=O)[C@H](C)N[P@](=O)(OC[C@H]1O[C@@H](n2cc(C)c(=O)[nH]c2=O)C[C@@H]1O)Oc1ccccc1 [T48]
Cell Survival Rate (increased percentage of cell survival compared with the Group of 5-FU) [1, 9]: 26%-34%
Cell Survival Rate (increased percentage of cell survival compared with the Group of 5-FU) [1, 10]: 38%-46%
Cell Survival Rate (increased percentage of cell survival compared with the Group of 5-FU) [1, 11]: 41%-48%
Cell Survival Rate (increased percentage of cell survival compared with the Group of 5-FU) [1, 12]: 66%-73%
Cell Survival Rate (increased percentage of cell survival compared with the Group of 5-FU) [1, 13]: 68%-76%
Cell Survival Rate (increased percentage of cell survival compared with the Group of 5-FU) [1, 14]: 77%-85%
Cell Survival Rate (increased percentage of cell survival compared with the Group of 5-FU) [1, 15]: 69%-76%
Δ % BW (on Day 6) ([4]; 15 mpk gavage): −1.97% ± 0.67%
Survival Rate ([4]; 15 mpk gavage): 100%
Average Diarrhea Grade ([4]; 15 mpk gavage): 1.3

CCC(CC)COC(=O)[C@H](C)N[P@@](=O)(Oc1ccccc1)O[C@H]1C[C@H](n2cc(C)c(=O)[nH]c2=O)O[C@@H]1CO [T49]
Cell Survival Rate (increased percentage of cell survival compared with the Group of 5-FU) [1, 9]: 35%-42%
Cell Survival Rate (increased percentage of cell survival compared with the Group of 5-FU) [1, 10]: 56%-63%
Cell Survival Rate (increased percentage of cell survival compared with the Group of 5-FU) [1, 11]: 72%-79%
Cell Survival Rate (increased percentage of cell survival compared with the Group of 5-FU) [1, 12]: 68%-74%
Cell Survival Rate (increased percentage of cell survival compared with the Group of 5-FU) [1, 13]: 36%-44%
Δ % BW (on Day 6) ([4]; 15 mpk gavage): −1.97% ± 0.67%
Survival Rate ([4]; 15 mpk gavage): 80%
Average Diarrhea Grade ([4]; 15 mpk gavage): 0.75
